How the values were obtained:
Test in all cases: Human cancer cell line panel, proliferation (sulforhodamine B)
Type in all cases: cell-based
[1] = system: brain tumor cell line SF-295; conditions: SF-295, 2 days of cultivation; read-out: 50% inhibitory concentration, proliferation
[2] = system: colon cancer cell line KM-12; conditions: KM-12, 2 days of cultivation; read-out: 50% inhibitory concentration, proliferation
[3] = system: kidney cancer cell line ACHN; conditions: 2 days of cultivation, read-out: 50% inhibitory concentration, proliferation

Measured: IC50

CC(=O)CSCCCCC[C@@H]1NC(=O)[C@H]2CCCN2C(=O)[C@H](Cc2ccccc2)NC(=O)C(C)(C)NC1=O [Ky-72, cyclo(-L-Am7(acetonyl)-Aib-L-Phe-D-Pro-)]
≤ 100 nM: all assays above
